From patent US5770378A, “Tricyclic retinoids, methods for their production and use” (Ligand Pharmaceuticals, Inc., priority 1995, dated 1998)
Values belong to the compound of their own block, whether it stands above or below them.

What was measured:
[1] = tested on: RAR and RXR receptors; assay: Co-transfection assay, RAR and RXR receptors overall; type: cell-based; conditions: for potency profile versus 9-cis retinoic acid: pan-agonist compounds; for receptor subfamily selectivity: RAR versus RXR
Procedure: (§1) Utilizing the "cis-trans" or "co-transfection" assay described by Evans et al., Science, 240:889-95 (May 13, 1988), the disclosure of which is herein incorporated by reference, the retinoid compounds of the present invention were tested and found to have strong, specific activity as either selective RAR agonists, selective RXR agonists, or as pan-agonist activators of both RAR and RXR receptors. This assay is described in further detail in U.S. Pat. Nos. 4,981,784 and 5,071,773, the disclosures of which are incorporated herein by reference.
(§2) In the co-transfection assay, a cloned cDNA for an IR (e.g., human RARα, RARβ, RXRγ) under the control of a constitutive promoter (e.g., the SV 40 promoter) is introduced by transfection (a procedure to induce cells to take up foreign genes) into a background cell substantially devoid of endogenous IRs. This introduced gene directs the recipient cells to make the IR protein of interest. A second gene is also introduced (co-transfected) into the same cells in conjunction with the IR gene. This second gene, comprising the cDNA for a reporter protein, such as firefly luciferase (LUC), controlled by an appropriate hormone responsive promoter containing a hormone response element (HRE). This reporter plasmid functions as a reporter for the transcription-modulating activity of the target IR. Thus, the reporter acts as a surrogate for the products (mRNA then protein) normally expressed by a gene under control of the target receptor and its native hormone.
(§3) The co-transfection assay can detect small molecule agonists or antagonists of target IRs. Exposing the transfected cells to an agonist ligand compound increases reporter activity in the transfected cells. This activity can be conveniently measured, e.g., by increasing luciferase production, which reflects compound-dependent, IR-mediated increases in reporter transcription. […] . Increasing concentrations of a suspected antagonist will decrease the reporter signal (e.g., luciferase production). The co-transfection assay is therefore useful to detect both agonists and antagonists of specific IRs. Furthermore, it determines not only whether a compound interacts with a particular IR, but whether this interaction mimics (agonizes) or blocks (antagonizes) the effects of the native regulatory molecules on target gene expression, as well as the specificity and strength of this interaction.
To determine RAR and/or RXR agonist activity of the compounds of the present invention, the CV-1 cells were transiently transfected by calcium phosphate coprecipitation according to the procedure of Berger et al., 41 J.Steroid Biochem. Mol. Biol., 733 (1992) with the following receptor expressing plasmids: pRShRARα: Giguere et al., 330 Nature, 624 (1987); pRShRARβ and pRShRARγ, Ishikawa et al., 4 Mol. Endocrin., 837 (1990); pRShRXRα, Mangelsdorf et al., 345 Nature, 224 (1990); and pRSmRXRβ and pRSmRXRγ, Mangelsdorf et al., 6 Genes & Devel., 329 (1992), the disclosures of which are herein incorporated by reference. Each of these receptor expressing plasmids was co-transfected at a concentration of 5 ng/well, along with a basal reporter plasmid at 100 ng/well, the internal control plasmid pRS-β-Gal at 50 ng/well and filler DNA, pGEM at 45 ng/well.

[2] = tested on: RARs; assay: Co-transfection assay, RARs overall; type: cell-based, human
Procedure: as §1, §2
as §3, with “interaction. […]” for “interaction.”

Structure (SMILES): CC(/C=C/CC1CCCc2cc3c(cc21)C(C)(C)CCC3(C)C)=C\C(=O)O (racemic) [Compound 124b, (2E,4E)-3-Methyl-6-(1,2,3,4,5,6,7,8-octahydro-5,5,8,8-tetramethylanthracen-1-yl)hexa-2,4-dienoic acid]
potency profile versus 9-cis retinoic acid [1]: superior potency profiles

Structure (SMILES): CC(/C=C/C=C1\CCOc2cc3c(cc21)C(C)(C)CCC3(C)C)=C\C(=O)O [Compound 119b, (2E,4E)-3-Methyl-6-[(E)-2,3,6,7,8,9-hexahydro-6,6,9,9-tetramethyl-benzo[g]chromen-4-ylidene]hexa-2,4-dienoic acid]
receptor subfamily selectivity [1]: RAR selective
RAR activity [2]: extremely potent RAR active

Structure (SMILES): CC(/C=C/C=C1/CCOc2cc3c(cc21)C(C)(C)CCC3(C)C)=C\C(=O)O [Compound 144b]
potency profile versus 9-cis retinoic acid [1]: superior potency profiles
RAR activity [2]: extremely potent RAR active

Now from value to compound, other results behind:

potency profile versus 9-cis retinoic acid [1]: superior potency profiles
Structure (SMILES): CC(/C=C/C=C1/CCCc2cc3c(cc21)C(C)(C)CCC3(C)C)=C\C(=O)O [Compound 101b, (2E,4E)-3-Methyl-6-[(Z)-3,4,5,6,7,8-hexahydro-5,5,8,8-tetramethyl-2H-anthracen-1-ylidene]hexa-2,4-dienoic acid]
RAR activity [2]: extremely potent RAR active

receptor subfamily selectivity [1]: RAR selective
Structure (SMILES): CC(/C=C/C=C1\CCCc2cc3c(cc21)C(C)(C)CCC3(C)C)=C\C(=O)O [Compound 109b, (2E,4E)-3-Methyl-6-[(E)-3,4,5,6,7,8-hexahydro-5,5,8,8-tetramethyl-2H-anthracen-1-ylidene]hexa-2,4-dienoic acid]
RAR activity [2]: extremely potent RAR active
